The experiment deals with Plasmodium berghei. The experiment is described as follows: Luciferase/luciferin-expressing antifolate-resistant parasites were used to infect a culture of HepG2 cells that were pre-incubated with compounds. Infected hepatocytes emit light due to the luciferase reaction. Assay results are presented as the percent inhibition of light emission compared to control. […]. Format: functional. Particulars: sporozoite; for IC90: read-out: LUCIFERASE INFECTION ASSAY - IC90.

On to `O=[N+]([O-])c1ccc(Sc2ccc(F)cc2)c2nonc12`, for which the IC90 (commonly the concentration at which the effect reaches the 90% level) is more than 11.3 µM. For the setting “FFLUC_HILL_SLOPE 1.53, FFLUC_R_SQUARED 0.17, HEPG2TOX_HILL_SLOPE 11.1, HEPG2TOX_R_SQUARED 0.647, PBLUC_HILL_SLOPE 22.5, PBLUC_R_SQUARED 0.184, read-out: LUCIFERASE INFECTION ASSAY - IC50”, the IC50 – broadly, the midpoint of a concentration-inhibition curve – turned out to be 10.5 µM.

`NC1=Nc2cccc3cccc(c23)N1`: the IC90 stood at 12.9 µM. For the same molecule, the IC50 (FFLUC_HILL_SLOPE 1.44, FFLUC_R_SQUARED 0.698, HEPG2TOX_HILL_SLOPE 2.55, HEPG2TOX_R_SQUARED 0.966, PBLUC_HILL_SLOPE 3.15, PBLUC_R_SQUARED 0.786, read-out: LUCIFERASE INFECTION ASSAY - IC50) worked out at 6.42 µM.

As to `O=C(Nc1ccccc1)c1cn(-c2ccc3c(c2)OCCO3)nn1`, the IC90 is 5.96 µM. In addition, the IC50 (FFLUC_HILL_SLOPE 1.49, FFLUC_R_SQUARED 0.912, PBLUC_HILL_SLOPE 0.315, PBLUC_R_SQUARED 0.673, read-out: LUCIFERASE INFECTION ASSAY - IC50) was found to be 0.00562 µM.

Turning to `COC(=O)c1c(NC(=O)c2ccoc2)c2cc(NCCc3ccccc3)cnc2n1Cc1ccccc1`, the IC90 is more than 6.67 µM. For the same molecule, the IC50 (FFLUC_HILL_SLOPE 1.52, FFLUC_R_SQUARED 0.257, PBLUC_HILL_SLOPE 25.4, PBLUC_R_SQUARED 0.141, read-out: LUCIFERASE INFECTION ASSAY - IC50) was more than 6.67 µM.

Consider `Cn1cnc([N+](=O)[O-])c1Sc1cccs1`, for which the IC90 is more than 13.7 µM. The IC50 (FFLUC_HILL_SLOPE 1.45, FFLUC_R_SQUARED 0.647, PBLUC_HILL_SLOPE 13.1, PBLUC_R_SQUARED 0.224, read-out: LUCIFERASE INFECTION ASSAY - IC50) was more than 13.7 µM.

With `O=C1C=CC(=O)N1c1ccc(Cl)cc1Br`, the IC90 is 8.68 µM. For the same molecule, the IC50 (FFLUC_HILL_SLOPE 1.45, FFLUC_R_SQUARED 0.668, PBLUC_HILL_SLOPE 3.96, PBLUC_R_SQUARED 0.503, read-out: LUCIFERASE INFECTION ASSAY - IC50) worked out at 4.99 µM.

`COc1ccccc1N1CCN(c2nc(=O)c3c([nH]2)CCC3)CC1`: the IC90 came out at 1.26 µM. The IC50 (FFLUC_HILL_SLOPE 1.43, FFLUC_R_SQUARED 0.67, PBLUC_HILL_SLOPE 2.78, PBLUC_R_SQUARED 0.645, read-out: LUCIFERASE INFECTION ASSAY - IC50) amounted to 0.572 µM.

`CNC(=O)c1ccc(/C=C/C(=O)N(c2ccc(C)c(F)c2)c2nc3ccccc3s2)cc1`: the IC90 was 8.92 µM. Also, the IC50 (FFLUC_HILL_SLOPE 1.49, FFLUC_R_SQUARED 0.0757, PBLUC_HILL_SLOPE 4.44, PBLUC_R_SQUARED 0.348, read-out: LUCIFERASE INFECTION ASSAY - IC50) worked out at 5.44 µM.

As to `COc1ccc(Nc2nccn3c(-c4cccc(C(=O)NCCO)c4)cnc23)cc1`, the IC90 was 4.59 µM. In addition, the half-inhibitory concentration (IC50) (FFLUC_HILL_SLOPE 1.47, FFLUC_R_SQUARED 0.89, PBLUC_HILL_SLOPE 0.68, PBLUC_R_SQUARED 0.895, read-out: LUCIFERASE INFECTION ASSAY - IC50) came to 0.181 µM.

As for `O=C(Nc1ccccc1Sc1ncc([N+](=O)[O-])s1)c1cccs1`, the IC90 is more than 9.08 µM. Further, the IC50 (FFLUC_HILL_SLOPE 1.44, FFLUC_R_SQUARED 0.479, read-out: LUCIFERASE INFECTION ASSAY - IC50) was more than 9.08 µM.

In the case of `O=C1CCCN1c1ccc(C2=NNC(=NC3CC3)SC2)cc1`, the IC90 was found to be 0.932 µM. Moreover, for the setting “FFLUC_HILL_SLOPE 1.46, FFLUC_R_SQUARED 0.93, PBLUC_HILL_SLOPE 0.517, PBLUC_R_SQUARED 0.899, read-out: LUCIFERASE INFECTION ASSAY - IC50”, the IC50 is 0.0133 µM.

Consider `N#CN=c1nc(/C=C/c2ccc(Br)cc2)[nH]c(-c2ccccc2O)n1`, for which the IC90 is 5.46 µM. The IC50 (FFLUC_HILL_SLOPE 1.52, FFLUC_R_SQUARED 0.887, PBLUC_HILL_SLOPE 1.8, PBLUC_R_SQUARED 0.711, read-out: LUCIFERASE INFECTION ASSAY - IC50) came out at 1.61 µM.

In the case of `CC(C)Cc1ccc(C(=O)CC2OC(=O)c3ccccc32)cc1` (stereo unspecified), the 90% effect concentration (IC90) is more than 10.7 µM. Under “FFLUC_HILL_SLOPE 1.52, FFLUC_R_SQUARED 0.66, PBLUC_HILL_SLOPE 3.96, PBLUC_R_SQUARED 0.504, read-out: LUCIFERASE INFECTION ASSAY - IC50”, the IC50 was found to be 8.38 µM.

For the molecule `O=C(O)c1ccc(Cl)cc1Oc1ccccc1`, the IC90 is more than 13.3 µM. Also, for the setting “FFLUC_HILL_SLOPE 1.52, FFLUC_R_SQUARED 0.302, read-out: LUCIFERASE INFECTION ASSAY - IC50”, the half-maximal inhibitory concentration (IC50) is more than 13.3 µM.

On to `C=CCSc1nnc(NC(=O)C2Cc3ccccc3CN2S(=O)(=O)c2ccccc2F)s1` (stereo unspecified), for which the IC90 is more than 10 µM. The IC50 (FFLUC_HILL_SLOPE 1.45, FFLUC_R_SQUARED 0.33, PBLUC_HILL_SLOPE 5.35, PBLUC_R_SQUARED 0.362, read-out: LUCIFERASE INFECTION ASSAY - IC50) turned out to be 7.22 µM.

For the molecule `CSc1nnnn1-c1cccc(NC(=O)c2cc(-c3cc(C)oc3C)nc3c2cnn3C(C)C)c1`, the 90% effect concentration (IC90) was more than 10 µM. Besides, under “FFLUC_HILL_SLOPE 1.52, FFLUC_R_SQUARED 0.0983, PBLUC_HILL_SLOPE 1.97, PBLUC_R_SQUARED 0.288, read-out: LUCIFERASE INFECTION ASSAY - IC50”, the IC50 amounted to 5.3 µM.

As for `C=c1ccccc1=C1NN=C(Nc2ccc(F)c(F)c2F)O1`, the IC90 was more than 10 µM. Besides, the IC50 (FFLUC_HILL_SLOPE 1.45, FFLUC_R_SQUARED 0.745, PBLUC_HILL_SLOPE 0.464, PBLUC_R_SQUARED 0.746, read-out: LUCIFERASE INFECTION ASSAY - IC50) amounted to 0.97 µM.

Take `CCOc1ccc(C2=NNC(=Nc3cccc(S(=O)(=O)N(C)C)c3)SC2)cc1`: the IC90 came out at 4.99 µM. The IC50 (FFLUC_HILL_SLOPE 1.45, FFLUC_R_SQUARED 0.572, HEPG2TOX_HILL_SLOPE 2.21, HEPG2TOX_R_SQUARED 0.976, PBLUC_HILL_SLOPE 3.43, PBLUC_R_SQUARED 0.708, read-out: LUCIFERASE INFECTION ASSAY - IC50) came to 2.63 µM.

As for `CCN(CC)S(=O)(=O)c1cccc(C(=O)c2c(C)c(Sc3ccc(Cl)cc3)c3ccccn23)c1`, the IC90 is more than 10 µM. The IC50 (FFLUC_HILL_SLOPE 1.47, FFLUC_R_SQUARED 0.14, read-out: LUCIFERASE INFECTION ASSAY - IC50) was more than 10 µM.

For `O=C(Nc1nn2cc(-c3ccccc3)nc2s1)C1CCC1`, the IC90 stood at 1.39 µM. Moreover, the IC50 (FFLUC_HILL_SLOPE 1.5, FFLUC_R_SQUARED 0.884, PBLUC_HILL_SLOPE 0.386, PBLUC_R_SQUARED 0.673, read-out: LUCIFERASE INFECTION ASSAY - IC50) amounted to 0.0047 µM.

For the molecule `NC(=O)c1cc(-c2csc(NC(=O)Cc3ccc(Cl)c(Cl)c3)n2)c[nH]1`, the IC90 was more than 10 µM. In addition, the IC50 (FFLUC_HILL_SLOPE 1.47, FFLUC_R_SQUARED 0.0625, read-out: LUCIFERASE INFECTION ASSAY - IC50) was more than 10 µM.

Consider `c1cc2c(cc1C1=NNC(=NC3CC3)SC1)CCCC2`, for which the concentration for an effect of 90% (IC90) is 0.277 µM. Besides, for the setting “FFLUC_HILL_SLOPE 1.51, FFLUC_R_SQUARED 0.952, HEPG2TOX_HILL_SLOPE 2.86, HEPG2TOX_R_SQUARED 0.94, PBLUC_HILL_SLOPE 0.977, PBLUC_R_SQUARED 0.884, read-out: LUCIFERASE INFECTION ASSAY - IC50”, the IC50 was found to be 0.0292 µM.

As to `Nc1ncc(-c2ccccc2Oc2ccccc2)cc1-c1ccc(O)cc1`, the concentration for an effect of 90% (IC90) was more than 9.31 µM. The IC50 (FFLUC_HILL_SLOPE 1.5, FFLUC_R_SQUARED 0.249, PBLUC_HILL_SLOPE 4.63, PBLUC_R_SQUARED 0.261, read-out: LUCIFERASE INFECTION ASSAY - IC50) is 6.66 µM.

For the molecule `Cc1noc(C)c1COc1cccc(C(=O)Nc2cccc(S(=O)(=O)Nc3cccc(C(F)(F)F)c3)c2)c1`, the IC90 is more than 10 µM. The IC50 (FFLUC_HILL_SLOPE 1.54, FFLUC_R_SQUARED 0.286, HEPG2TOX_HILL_SLOPE 4.14, HEPG2TOX_R_SQUARED 0.909, PBLUC_HILL_SLOPE 1.42, PBLUC_R_SQUARED 0.59, read-out: LUCIFERASE INFECTION ASSAY - IC50) was determined as 6.04 µM.

On to `Nc1nc2c(C(=O)c3cccs3)nnn2c2ccc(Cl)cc12`, for which the IC90 stood at 0.489 µM. Besides, where the note is “FFLUC_HILL_SLOPE 1.53, FFLUC_R_SQUARED 0.767, PBLUC_HILL_SLOPE 0.914, PBLUC_R_SQUARED 0.801, read-out: LUCIFERASE INFECTION ASSAY - IC50”, the 50% inhibitory concentration (IC50) turned out to be 0.0442 µM.

As for `O=c1c(Cl)c(Cl)cnn1-c1ccc(C(F)(F)F)cc1`, the IC90 came to 5 µM. Where the note is “FFLUC_HILL_SLOPE 1.51, FFLUC_R_SQUARED 0.59, HEPG2TOX_HILL_SLOPE 2.35, HEPG2TOX_R_SQUARED 0.929, PBLUC_HILL_SLOPE 2.87, PBLUC_R_SQUARED 0.611, read-out: LUCIFERASE INFECTION ASSAY - IC50”, the half-inhibitory concentration (IC50) came to 2.33 µM.

As for `O=C(OCCSc1ccc([N+](=O)[O-])c2nonc12)c1ccc(F)cc1`, the IC90 was more than 9.08 µM. Moreover, for the setting “FFLUC_HILL_SLOPE 1.52, FFLUC_R_SQUARED 0.911, HEPG2TOX_HILL_SLOPE 8.69, HEPG2TOX_R_SQUARED 0.77, PBLUC_HILL_SLOPE 16.5, PBLUC_R_SQUARED 0.0304, read-out: LUCIFERASE INFECTION ASSAY - IC50”, the concentration for half-maximal inhibition (IC50) is more than 9.08 µM.

As to `COc1cccc(N2C(=O)C=CC2=O)c1`, the IC90 is more than 16.2 µM. Further, the IC50 (FFLUC_HILL_SLOPE 1.51, FFLUC_R_SQUARED 0.52, PBLUC_HILL_SLOPE 2.51, PBLUC_R_SQUARED 0.451, read-out: LUCIFERASE INFECTION ASSAY - IC50) was 10.2 µM.

These data come from ChEMBL document CHEMBL4483862, “Open-source discovery of chemical leads for next-generation chemoprotective antimalarials” (2018).
